Measurements: patent US20050267182A1, “Urea derivatives as FLT-3 modulators” (Ambit Biosciences Corporation, priority 2003, published 2005)
pIC50: −log10 of the molar value.

Experiments:
FLT3 = target: T1, FLT3 (Homo sapiens, UniProt P36888); assay: Binding constant (Kd) measurement, phage-displayed kinase competition binding assay; details: for Binding Assay: FLT3(DKIN): FLT3(DKIN) construct; for Binding Assay: FLT3(JMminus): FLT3(JMminus) construct
T1 construct: FLT3(DKIN); made in house
T1 sequence (P36888 610-943 limits assumed): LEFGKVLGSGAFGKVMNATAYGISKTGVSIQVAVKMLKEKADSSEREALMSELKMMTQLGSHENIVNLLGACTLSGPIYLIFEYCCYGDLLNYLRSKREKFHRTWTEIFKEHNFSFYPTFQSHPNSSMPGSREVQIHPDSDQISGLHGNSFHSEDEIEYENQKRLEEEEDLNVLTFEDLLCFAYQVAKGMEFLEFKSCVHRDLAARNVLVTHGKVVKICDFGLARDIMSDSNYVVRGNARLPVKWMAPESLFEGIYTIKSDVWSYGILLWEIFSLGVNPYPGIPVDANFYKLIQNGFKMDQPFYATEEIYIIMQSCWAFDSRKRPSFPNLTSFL
Source text: Binding Constant (Kd) Measurements for Small-Molecule-Kinase Interactions
The term “ND” represents non-determined values.

MV4,11 cells = assay: FLT3 assay using MV4,11 cells (cellular proliferation, MTS); format: cell-based, human; details: cell assay code CS0001
Experimental: The ability of FLT3 kinase inhibitors to inhibit cellular proliferation was also examined. MV4:11 was a cell line derived from a patient with acute myelogenous leukemia.
FLT3 Assay Using MV4,11 Cells
MV4,11 cells were grown in an incubator @ 37° C. in 5% CO2 in Medium 2 (RPMI, 10% FBS, 4 mM glutamine, Penn/Strep). The cells were counted daily and the cell density was kept between 1e5 and 8e5 cells/ml.
Day One: Enough cells were harvested for experiments to be conducted in 50 ml conical tubes. The harvested cells were spun at 500 g for 5 min at 4° C., the supernatant was then aspirated and the cells were resuspended in the starting volume of 1×PBS. The cells were again spun at 500 g for 5 min at 4° C. and the supernatant again aspirated. The cells were then resuspended in medium 3 (DMEM w/ glut, 10% FBS, Penn/Strep) to a density of 4e5 cells/ml and incubated (37° C. in 5% CO2 O/N.
Day Two: The cells were counted and enough medium 3 was added to decrease density to 2e5 cells/ml. 50 ul (10,000 cells) was aliquoted into each well of a 96 well optical plate using multichannel pipetman. The compound plate was then set up by aliquoting 3 μl of negative control (DMSO) into column 1 of a 96 well 300 ul polypropylene plate, aliquoting 3 μt of positive control (10 mM AB20121) into column 12 of plate, and aliquoting 3 μl of appropriate compounds from serial dilutions into columns 2-11. To each well, 150 μl of Medium 3 was added and 50 μl of compound/medium mixture from compound plate into rows of optical plate in duplicate. The cells were then incubated @ 37° C. in 5% CO2 for 3 days.
Day Five: MTS was thawed in a H2O bath. 20 μl of MTS was added to each well of optical plate and the cells were incubated (37° C. in 5% CO2 for 2 hours. The plate was then placed on a plate shaker for 30 seconds on high speed.

SMILES | Binding Assay: FLT3(DKIN) (FLT3) | Cell Assay: CS0001:IC50 (MV4,11 cells) | pIC50 (MV4,11 cells; Homo sapiens, MV4-11) | Binding Assay: FLT3(JMminus) (FLT3)
CC(C)(C)c1cc(NC(=O)Nc2ccc(NC(=O)c3ncc[nH]3)cc2)no1 [Compound N13] | + + + + | + + + + |  | 
CC(C)(C)c1cc(NC(=O)Nc2ccc(NC(=O)c3csnn3)cc2)no1 [Compound N14] | + + + + | + + + |  | 
Cc1nc(C(=O)Nc2ccc(NC(=O)Nc3cc(C(C)(C)C)on3)cc2)nn1-c1cc(Cl)cc(Cl)c1 [Compound N15] | + + + | + + |  | 
Cc1nnsc1C(=O)Nc1ccc(NC(=O)Nc2cc(C(C)(C)C)on2)cc1 [Compound N18] | + + + | + + |  | 
CC(C)(C)c1cc(NC(=O)Nc2ccc(NC(=O)c3c[nH]c(=O)nc3-c3ccncc3)cc2)no1 [Compound N19] | + + | + + |  | 
Cn1cc(C(=O)Nc2ccc(NC(=O)Nc3cc(C(C)(C)C)on3)cc2)c(C(F)(F)F)n1 [Compound N20] | + + + + | + + + |  | 
COc1nc(C)cc(C)c1C(=O)Nc1ccc(NC(=O)Nc2cc(C(C)(C)C)on2)cc1 [Compound N22] | + + + + | + + + |  | 
CC(C)(C)c1cc(NC(=O)Nc2ccc(NC(=O)c3cccc(Br)c3)cc2)no1 [Compound N24] | + + + | + + |  | 
CC(C)(C)c1cc(NC(=O)Nc2ccc(NC(=O)c3cccc(SC(F)F)c3)cc2)no1 [Compound N25] | + + + + | + + + |  | 
CC(C)(C)c1cc(NC(=O)Nc2ccc(NC(=O)c3ccc(Br)cc3)cc2)no1 [Compound N27] | + + | + + |  | 
CC(C)(C)c1cc(NC(=O)Nc2ccc(NC(=O)c3cc(Cl)cc(Cl)c3)cc2)no1 [Compound N29] | + + + | + + + |  | 
CC(C)(C)c1cc(NC(=O)Nc2ccc(NC(=O)c3ccc(OC(F)(F)F)cc3)cc2)no1 [Compound N30] | + + | + + |  | 
Cc1cc(C)c(C(=O)Nc2ccc(NC(=O)Nc3cc(C(C)(C)C)on3)cc2)c(C)c1 [Compound N31] | + + + | + + |  | 
CC(C)(C)c1cc(NC(=O)Nc2ccc(NC(=O)c3ccc(SC(F)(F)F)cc3)cc2)no1 [Compound N33] | + + + |  | < 5.00 | 
CC(C)(C)c1cc(NC(=O)Nc2ccc(NC(=O)Cc3ccccc3)cc2)no1 [Compound N35] | + + + | + + |  | 
CC(C)(C)c1cc(NC(=O)Nc2ccc(NC(=O)c3c(F)cccc3F)cc2)no1 [Compound N37] | + + + | + + |  | 
Cc1[nH]c(C(=O)Nc2ccc(NC(=O)Nc3cc(C(C)(C)C)on3)cc2)c(C)c1CCC(=O)O [Compound N39] | + + + + | + + |  | 
CC(C)(C)c1cc(NC(=O)Nc2ccc(NC(=O)C(N)Cc3ccccc3F)cc2)no1 (stereo not shown) [Compound N42] | + + + | + + |  | 
CC(=O)c1c[nH]c(C(=O)Nc2ccc(NC(=O)Nc3cc(C(C)(C)C)on3)cc2)c1 [Compound N43] | + + + + | + + + |  | 
CC(C)(C)c1cc(NC(=O)Nc2ccc(NC(=O)CC(N)c3ccccc3Cl)cc2)no1 (stereo not shown) [Compound N44] | + + | + + |  | 
CC(C)(C)c1cc(NC(=O)Nc2ccc(NC(=O)c3cnn(-c4cccc(Cl)c4)c3Br)cc2)no1 [Compound N45] | + + + + | + + + |  | 
Cc1nc(C(=O)Nc2ccc(NC(=O)Nc3cc(C(C)(C)C)on3)cc2)c(C(F)(F)F)o1 [Compound N55] | + + + + | + + + |  | 

SMILES | Binding Assay: FLT3(DKIN) (FLT3) | Cell Assay: CS0001:IC50 (MV4,11 cells) | pIC50 (MV4,11 cells; Homo sapiens, MV4-11) | Binding Assay: FLT3(JMminus) (FLT3)
COc1cc(OC)nc(Oc2cccnc2C(=O)Nc2ccc(NC(=O)Nc3cc(C(C)(C)C)on3)cc2)n1 [Compound N56] | + + + + | + + + |  | 
CC(C)(C)c1cc(NC(=O)Nc2ccc(NC(=O)C3=Cc4cc(F)cc(S(C)(=O)=O)c4C3)cc2)no1 [Compound N58] | + + + | + + + |  | 
CC(C)(C)c1cc(NC(=O)Nc2ccc(NC(=O)c3cc4cccnc4nc3C(F)(F)F)cc2)no1 [Compound N61] | + + + | + + + |  | 
CC(C)(C)c1cc(NC(=O)Nc2ccc(NC(=O)C3=Cc4cc(F)cc(S(C)(=O)=O)c4C3)cc2)no1 [Compound N62] | + + + + | + + + |  | 
CC(C)(C)c1cc(NC(=O)Nc2ccc(NC(=O)Cc3sc(-c4ccc(Cl)cc4)nc3-c3ccccc3)cc2)no1 [Compound N66] | + + + + | + + + |  | 
CC(C)(C)c1cc(NC(=O)Nc2ccc(NC(=O)c3ccccc3O)cc2)no1 [Compound N69] |  | + + + |  | + +
COc1cc(OC)nc(Oc2ccccc2C(=O)Nc2ccc(NC(=O)Nc3cc(C(C)(C)C)on3)cc2)n1 [Compound N70] |  | + + |  | + + +
CC(C)(C)c1cc(NC(=O)Nc2ccc(NC(=O)c3nnsc3Sc3ccc(Cl)cc3)cc2)no1 [Compound N71] |  | + + |  | + + +
CC(C)(C)c1cc(NC(=O)Nc2ccc(NC(=O)c3ccc(-n4cc(-c5ccncn5)cn4)cc3)cc2)no1 [Compound N76] |  | + + + |  | + + +
CC(C)(C)c1cc(C(=O)Nc2ccc(NC(=O)Nc3cc(C(C)(C)C)on3)cc2)n(-c2ccccc2)n1 [Compound N78] |  | + + + |  | + + +
CC(C)(C)c1cc(NC(=O)Nc2ccc(NC(=O)Cc3noc4ccccc34)cc2)no1 [Compound N80] |  | + + + |  | + + +
CCOC(=O)CCc1c(C)[nH]c(C(=O)Nc2ccc(NC(=O)Nc3cc(C(C)(C)C)on3)cc2)c1C [Compound N83] | + + + + | + + + |  | 
Cc1ccc(NC(=O)c2ccc(NC(=O)Nc3cc(C(C)(C)C)on3)cc2)cc1 [Compound N84] | + + + + | + + + + |  | 
CNC(=O)c1ccc(NC(=O)Nc2cc(C(C)(C)C)on2)cc1 [Compound N85] | + + + + | + + + |  | 
CC(C)(C)c1cc(NC(=O)Nc2ccc(C(=O)Nc3ccccc3)cc2)no1 [Compound N90] | + + + + | + + + |  | 
CC(C)(C)c1cc(NC(=O)Nc2ccc(NC(=O)CCc3ccccc3)cc2)no1 [Compound N96] | + + + + | + + + + |  | 
CC(C)(C)OC(=O)Nc1ccc(NC(=O)Nc2cc(C(C)(C)C)on2)cc1 [Compound N101] | + + + + | + + + |  | 
COc1cccc(-c2ccc(C(=O)Nc3ccc(NC(=O)Nc4cc(C(C)(C)C)on4)cc3)o2)c1 [Compound N105] | + + + + | + + + |  | 
CC(C)(C)c1cc(NC(=O)Nc2ccc(NC(=O)c3nccc4ccccc34)cc2)no1 [Compound N117] | + + + + | + + + + |  | 
Cc1ccc(-c2cc(C(=O)Nc3ccc(NC(=O)Nc4cc(C(C)(C)C)on4)cc3)c(C)o2)cc1 [Compound N120] | + + + + | + + + |  | 
COc1cc(OC)nc(C2CCCCC2C(=O)Nc2ccc(NC(=O)Nc3cc(C(C)(C)C)on3)cc2)n1 (stereo not shown) [Compound N129] |  | + + + |  | + + +
CC(C)(C)c1cc(NC(=O)Nc2ccc(NC(=O)c3cc(Cl)nc(Cl)c3)cc2)no1 [Compound N132] | + + + | + + + |  | 
